The target of test [1] is T1, LXRβ ligand-binding domain (Homo sapiens, UniProt P55055, DUP175-175).
T1 construct: amino acids 156-461; NP009052; made in house; host or cells: E. coli
T1 sequence (P55055 with tags, fused parts or gaps DUP175-175 limits assumed): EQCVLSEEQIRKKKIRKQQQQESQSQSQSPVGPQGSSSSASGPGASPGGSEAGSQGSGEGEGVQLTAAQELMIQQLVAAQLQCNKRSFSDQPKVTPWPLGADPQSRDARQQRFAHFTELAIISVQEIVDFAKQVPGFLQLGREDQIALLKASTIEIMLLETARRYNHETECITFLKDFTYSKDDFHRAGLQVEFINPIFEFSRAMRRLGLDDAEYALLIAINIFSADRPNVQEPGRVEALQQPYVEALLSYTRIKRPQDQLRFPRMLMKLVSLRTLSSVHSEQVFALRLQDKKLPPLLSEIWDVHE
Description: TR-FRETβ activity assay (NCoA3 coactivator peptide recruitment). It is filed as biochemical. The procedure:
(§1) The tested compounds were usually dissolved, tested and stored as 20 mM stock solutions in DMSO. Since sulfonyl acetic acid derivatives tend to decarboxylate under these conditions, these stock solutions were prepared, tested and stored as 20 mM DMSO stock solutions containing 100 mM trifluoroacetic Acid (5 equivalents). Sulfonyl acetic acid derivatives are shelf stable as solid at rt for long time as reported by Griesbrecht et al. (Synlett 2010:374) or Faucher et al. (J. Med. Chem. 2004; 47:18).
Recombinant GST-LXRPβ ligand-binding domain (LBD; amino acids 156-461; NP009052; SEQ ID NO:4) was expressed in E. coli and purified via gluthatione-sepharose affinity chromatography. N-terminally biotinylated NCoA3 coactivator peptide (SEQ ID NO:7) was chemically synthesized (Eurogentec). Assays were done in 384 well format (final assay volume of 25 μL/well) in a Tris/HCl buffer (pH 6.8) containing KCl, bovine serum albumin, Triton-X-100 and 1 μM 24(S)-25-epoxycholesterol as LXR-prestimulating agonist. Assay buffer was provided and test articles (potential LXR inverse agonists) were titrated to yield final assay concentrations of 50 μM, 16.7 μM, 5.6 μM, 1.9 μM, 0.6 μM, 0.2 μM, 0.07 μM, 0.02 μM, 0.007 μM, 0.002 μM with one vehicle control. Finally, a detection mix was added containing anti GST-Tb cryptate (CisBio; 610SAXLB) and Streptavidin-XL665 (CisBio; 610SAXLB) as fluorescent donor and acceptor, respectively, as well as the coactivator peptide and LXRβ-LBD protein (SEQ ID NO:4). The reaction was mixed thoroughly, equilibrated for 1 h at 4° C. and vicinity of LXRβ and coactivator peptide was detected by measurement of fluorescence in a VictorX4 multiplate reader (PerkinElmer Life Science) using 340 nm as excitation and 615 and 665 nm as emission wavelengths. Assays were performed in triplicates.
Final Assay Concentrations of Components:
240 mM KCl, 1 μg/μL BSA, 0.002% Triton-X-100, […] anti GST-Tb cryptate, 2.5 ng/μL Streptavidin-XL665, coactivator peptide (400 nM), LXRβ protein (530 μg/mL, i.e. 76 nM).

In test [2] the target is T2, full length (FL) LXRα (Homo sapiens, UniProt Q13133).
T2 construct: the full length (FL) proteins of LXRα (amino acids 1-447); NP005684; expressed in transfected cells; host or cells: HEK293
T2 sequence (Q13133 1-447): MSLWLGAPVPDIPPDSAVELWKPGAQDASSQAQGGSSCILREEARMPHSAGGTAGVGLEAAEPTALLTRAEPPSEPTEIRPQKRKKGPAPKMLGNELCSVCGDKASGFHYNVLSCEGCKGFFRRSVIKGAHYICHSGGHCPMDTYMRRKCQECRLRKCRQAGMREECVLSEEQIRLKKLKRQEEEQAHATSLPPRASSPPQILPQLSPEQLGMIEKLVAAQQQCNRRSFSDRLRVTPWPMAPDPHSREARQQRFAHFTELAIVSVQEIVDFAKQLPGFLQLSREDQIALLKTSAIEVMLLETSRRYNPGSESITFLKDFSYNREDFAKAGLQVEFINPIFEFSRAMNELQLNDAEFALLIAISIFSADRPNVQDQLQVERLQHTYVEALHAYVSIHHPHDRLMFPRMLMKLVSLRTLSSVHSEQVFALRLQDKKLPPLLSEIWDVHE
Description: LXR Gal4 reporter transient transfection assay (FL-M2H Gal4α). It is filed as cell-based. As to conditions: HEK293 cells; for pEC50: full length LXRα, read-out: FL-M2H Gal4α (EC50 range). The procedure:
as §1
(§2) LXR Gal4 Reporter Transient Transfection Assays
(§3) LXRα and LXRβ activity status was determined via detection of interaction with coactivator and corepressor proteins in mammalian two-hybrid experiments (M2H). For this, via transient transfection the full length (FL) proteins of LXRα (amino acids 1-447; NP005684; SEQ ID NO:1) or LXRβ-(amino acids 1-461; NP009052; SEQ ID NO:2) or the ligand-binding domains (LBD) of LXRα (amino acids 155-447 SEQ ID NO:3) or LXRβ (amino acids 156-461; SEQ ID NO:4) were expressed from pCMV-AD (Stratagene) as fusions to the transcriptional activation domain of NFkB. As cofactors, domains of either the steroid receptor coactivator 1 (SRC1; amino acids 552-887; SEQ ID NO:5) or of the corepressor NCoR (amino acids 1906-2312; NP006302; SEQ ID NO:6) were expressed as fusions to the DNA binding domain of the yeast transcription factor GAL4 (from pCMV-BD; Stratagene). Interaction was monitored via activation of a coexpressed Firefly Luciferase Reporter gene under control of a promoter containing repetitive GAL4 response elements (vector pFRLuc; Stratagene). Transfection efficiency was controlled via cotransfection of constitutively active pRL-CMV Renila reniformis luciferase reporter (Promega). HEK293 cells were grown in minimum essential medium (MEM) with 2 mM L-glutamine and Earle's balanced salt solution supplemented with 8.3% fetal bovine serum, 0.1 mM non-essential amino acids, 1 mM sodium pyruvate, at 37° C. in 5% CO2. 3.5×10^4 cells/well were plated in 96-well cell culture plates in growth medium supplemented with 8.3% fetal bovine serum for 16-20 h to ˜90% confluency. For transfection, medium was taken off and LXR and cofactor expressing plasmids as well as the reporter plasmids are added in 30 μL OPTIMEM/well including polyethylene-imine (PEI) as vehicle. Typical amounts of plasmids transfected/well: pCMV-AD-LXR (5 ng), pCMV-BD-cofactor (5 ng), pFR-Luc (100 ng), pRL-CMV (0.5 ng). Compound stocks were prepared in DMSO, prediluted in MEM to a total volume of 120 μL, and added 4 h after addition of the transfection mixture (final vehicle concentration not exceeding 0.2%). Cells were incubated for additional 16 h, lysed for 10 min in 1× Passive Lysis Buffer (Promega) and Firefly and Renilla luciferase activities were measured sequentially in the same cell extract using buffers containing D-luciferine and coelenterazine, respectively. Measurements of luminescence were done in a BMG-luminometer.

Test [3] deals with T3, full length (FL) LXRβ (Homo sapiens, UniProt P55055, DUP175-175).
T3 construct: the full length (FL) proteins of LXRα (amino acids 1-447); NP005684; NP009052; expressed in transfected cells; host or cells: HEK293
T3 sequence (P55055 with tags, fused parts or gaps DUP175-175): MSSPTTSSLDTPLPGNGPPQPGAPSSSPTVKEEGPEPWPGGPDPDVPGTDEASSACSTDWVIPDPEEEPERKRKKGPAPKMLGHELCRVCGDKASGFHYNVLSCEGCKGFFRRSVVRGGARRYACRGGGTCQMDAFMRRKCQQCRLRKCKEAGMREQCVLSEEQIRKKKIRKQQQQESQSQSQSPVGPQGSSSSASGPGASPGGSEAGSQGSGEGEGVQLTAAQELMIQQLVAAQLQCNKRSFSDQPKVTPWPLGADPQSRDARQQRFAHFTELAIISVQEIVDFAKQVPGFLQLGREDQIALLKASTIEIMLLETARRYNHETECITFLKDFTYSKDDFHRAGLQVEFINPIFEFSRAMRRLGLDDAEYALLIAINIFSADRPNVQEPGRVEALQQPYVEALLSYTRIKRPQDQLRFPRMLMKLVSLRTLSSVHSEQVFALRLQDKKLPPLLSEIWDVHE
Description: LXR Gal4 reporter transient transfection assay (FL-M2H Gal4β). It is filed as cell-based. The following applies: HEK293 cells; for pEC50: full length LXRβ, read-out: FL-M2H Gal4β (EC50 range). As for the experimental part:
as §1, §2, §3

[4] abbreviates: TR-FRET, 1 μM 24(S)-25-epoxycholesterol prestimulation, read-out: FRETβ (EC50 range).

pEC50: −log10 of the molar value. Read-outs that look alike come from different tables or passages of the source.

Take `COc1cc(F)cc2c(-c3ccsc3C#N)c(-c3cccc(-c4ccc(C(=O)O)cc4)c3)n(S(=O)(=O)c3ccc(C)cc3)c12` [3/53]: the pEC50 in test [1] (setting [4]), in test [2] and in test [3] was over 7.00 throughout.
With `N#Cc1cccc(C#N)c1-c1c(-c2cccc(-c3ccc(C(=O)O)c(F)c3F)c2)n(S(=O)(=O)c2ccc(C(F)F)cc2)c2ccc(F)cc12` [11/52], the pEC50 in test [1] (setting [4]), in test [2] and in test [3] was over 7.00 in each case.
In the case of `COC(=O)c1ccc(-c2cccc(-c3c(-c4c(C)cccc4C#N)c4cc(F)ccc4n3S(=O)(=O)c3ccc(C(F)F)cc3)c2)c(Cl)c1` [1/122], the pEC50 in test [1] (setting [4]) is 6.00 to 7.00; in test [2] it was over 7.00; in test [3] it was over 7.00.
As for `N#Cc1sccc1-c1c(-c2cccc(N3CC(C(=O)O)C3)c2)n(S(=O)(=O)c2ccc(C(F)(F)F)cc2)c2ccc(F)cc12` [3/34], the pEC50 was 6.00 to 7.00 in test [1] (setting [4]), 6.00 to 7.00 in test [2] and over 7.00 in test [3].
As for `Cc1ccc(S(=O)(=O)n2c(-c3cccc(-c4ccc(CN(C)C)cc4)c3)c(-c3ccsc3C#N)c3cc(F)ccc32)cc1` [8/1], the pEC50 is 6.00 to 7.00 in test [1] (setting [4]), over 7.00 in test [2] and over 7.00 in test [3].
As to `N#Cc1cncc(C#N)c1-c1c(-c2cccc(-c3ccc(C(=O)O)cc3Cl)c2)n(S(=O)(=O)c2ccc(C(F)F)cc2)c2ccc(F)cc12` [11/67], the pEC50 is 6.00 to 7.00 in test [1] (setting [4]), over 7.00 in test [2] and over 7.00 in test [3].
Consider `N#Cc1sccc1-c1c(-c2cccc(C3CC3C(=O)NO)c2)n(S(=O)(=O)c2ccc(Cl)cc2)c2ccccc12` (stereo not shown) [6/1], for which the pEC50 in test [1] (setting [4]) is 6.00 to 7.00; in test [2], over 7.00; in test [3], over 7.00.
Regarding `O=C(O)c1ccc(-c2cccc(-c3c(-c4cccc5c4OCO5)c4cc(F)ccc4n3S(=O)(=O)c3ccc(C(F)F)cc3)c2)c(Cl)c1` [11/44], the pEC50 in test [1] (setting [4]), in test [2] and in test [3] was over 7.00 in each case.
With `N#Cc1ccccc1-c1c(-c2cccc(-c3ccc(C(=O)O)c4c3OCO4)c2)n(S(=O)(=O)c2ccc(C(F)F)cc2)c2ccc(F)cc12` [11/28], the pEC50 in test [1] (setting [4]), in test [2] and in test [3] was over 7.00 each time.
In the case of `N#Cc1ccncc1-c1c(-c2cccc(-c3cc(F)c(C(=O)O)cc3Cl)c2)n(S(=O)(=O)c2ccc(C(F)F)cc2)c2ccc(F)cc12` [11/10], the pEC50 in test [1] (setting [4]), in test [2] and in test [3] was over 7.00 throughout.
On to `Cc1ccc(S(=O)(=O)n2c(-c3cccc(-c4ccc(C(=O)O)cc4Cl)c3)c(-c3ccsc3C#N)c3cc(F)ccc32)cc1F` [11/19], for which the pEC50 in test [1] (setting [4]) is 6.00 to 7.00; in test [2] it was over 7.00; in test [3] it was over 7.00.
On to `Cc1ccc(S(=O)(=O)n2c(-c3cccc(N4CC(C(=O)O)C4)c3)c(-c3csc(C#N)c3)c3cc(F)ccc32)cc1` [C3/29, reference compound], for which the “FRETβ efficacy (value in brackets)” value in test [1] (1 μM 24(S)-25-epoxycholesterol as prestimulating agonist) was −102%. Besides, the pEC50 in test [1] (1 μM 24(S)-25-epoxycholesterol as prestimulating agonist, read-out: FRETβ potency) was 5.37. Besides, the “FL-M2H Gal4α potency” value in test [2] is “inactive”. Also, in test [3], the “FL-M2H Gal4β potency” value is “inactive”.
For `O=C(O)c1ccc(-c2cccc(-c3c(-c4ccccc4C4COC4)c4cnccc4n3S(=O)(=O)c3ccc(C(F)F)cc3)c2)c(Cl)c1` [8/3], the pEC50 in test [1] (setting [4]) is 6.00 to 7.00; in test [2] it was 6.00 to 7.00; in test [3] it was over 7.00.
For the compound `Cc1ccc(S(=O)(=O)n2c(-c3ccnc(-c4ccc(C(=O)O)cc4)c3)c(-c3ccsc3C#N)c3cc(F)ccc32)cc1` [5/6], the results for the pEC50 in test [1] (setting [4]), in test [2] and in test [3] were 6.00 to 7.00, over 7.00 and over 7.00, respectively.
As to `Cc1ccc(S(=O)(=O)n2c(-c3cccc(N4CC(C(=O)O)C4)c3)c(-c3ccsc3CCO)c3cc(F)ccc32)cc1` [3/27], the pEC50 in test [1] (setting [4]) is 5.00 to 6.00; in test [2], 6.00 to 7.00; in test [3], 6.00 to 7.00.
With `COc1c(C(=O)O)ccc(-c2cccc(-c3c(-c4ccsc4C#N)c4cc(F)ccc4n3S(=O)(=O)c3ccc(C)cc3)c2)c1Cl` [12/5], the pEC50 in test [1] (setting [4]), in test [2] and in test [3] was over 7.00 throughout.
Take `Cc1cccc(C(F)F)c1-c1c(-c2cccc(-c3ccc(C(=O)O)cc3Cl)c2)n(S(=O)(=O)c2ccc(C(F)F)cc2)c2ccc(F)cc12` [11/38]: the pEC50 in test [1] (setting [4]), in test [2] and in test [3] was over 7.00 each time.
